Assay results taken from patent US10973817B2, “Pharmaceutical compounds” (SENTINEL ONCOLOGY LIMITED, priority 2014, dated 2021).
Where a name gives a salt, the structure may show the parent alone.

Target: Chk-1 kinase (Homo sapiens (Human), UniProt O14757)
Test: Chk-1 kinase inhibiting activity (33P-ATP filter-binding kinase assay)
Assay type: biochemical
Conditions: against Chk-1 kinase; recombinant full length GST-tagged, 0.5 nM; CHKtide substrate 20 μM; 120 minutes at room temperature
Procedure: Chk-1 Kinase Inhibiting Activity
The compounds of the invention were tested for activity against Chk-1 kinase using the materials and protocols set out below.
Base Reaction buffer: 20 mM Hepes (pH 7.5), 10 mM MgCl2, 1 mM EGTA, 0.02% Brij35, 0.02 mg/ml BSA, 0.1 mM Na3VO4, 2 mM DTT, 1% DMSO • Required cofactors are added individually to each kinase reaction Reaction Procedure: (i) Prepare indicated substrate in freshly prepared Base Reaction Buffer (ii) Deliver any required cofactors to the substrate solution above (iii) Deliver indicated kinase into the substrate solution and gently mix (iv) Deliver compounds in DMSO into the kinase reaction mixture (v) Deliver ^33P-ATP (specific activity 0.01 μCi/μl final) into the reaction mixture to initiate the reaction. (vi) Incubate kinase reaction for 120 minutes at room temperature (vii) Reactions are spotted onto P81 ion exchange paper (Whatman #3698-915) (viii) Wash filters extensively in 0.1% phosphoric acid. (ix) Dry filters and measure counts in scintillation counter Kinase Information: CHK-1H—Genbank Accession # AF016582 Recombinant full length construct, N-terminal GST tagged, purified from insect cells. […]
From the results obtained by following the above protocol, the IC50 values against Chk-1 kinase of each of the compounds of Examples 1-153 were determined and these are shown in Table 3.

Chain of Chk-1 kinase (O14757 whole entry): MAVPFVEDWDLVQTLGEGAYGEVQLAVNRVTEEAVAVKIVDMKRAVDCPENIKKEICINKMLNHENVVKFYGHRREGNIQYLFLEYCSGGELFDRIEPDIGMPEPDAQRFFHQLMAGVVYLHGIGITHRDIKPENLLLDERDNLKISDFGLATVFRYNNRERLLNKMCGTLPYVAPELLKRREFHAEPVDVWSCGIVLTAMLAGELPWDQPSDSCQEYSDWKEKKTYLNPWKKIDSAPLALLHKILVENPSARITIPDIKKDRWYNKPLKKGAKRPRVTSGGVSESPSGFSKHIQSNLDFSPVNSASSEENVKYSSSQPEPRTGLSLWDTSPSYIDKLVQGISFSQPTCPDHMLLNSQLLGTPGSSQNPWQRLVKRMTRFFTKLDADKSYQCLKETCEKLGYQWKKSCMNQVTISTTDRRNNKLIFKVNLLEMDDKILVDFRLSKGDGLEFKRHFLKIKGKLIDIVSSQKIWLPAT

`COc1cc(CN2CC[C@H](OC)C2)ccc1-c1cc(Nc2cnc(C#N)cn2)n[nH]1` [Example 124, 5-[[5-[2-methoxy-4-[[(3S)-3-methoxypyrrolidin-1H-yl]methyl]phenyl]-1H-pyrazol-3-yl]amino]pyrazine-2-carbonitrile, hydrochloride] showed an IC50 of 0.25 nM.
In the case of `COc1cc(CN2CC[C@@H](OC)C2)ccc1-c1cc(Nc2cnc(C#N)cn2)n[nH]1` [Example 125, 5-[[5-[2-methoxy-4-[[(3R)-3-methoxypyrrolidin-1H-yl]methyl]phenyl]-1H-pyrazol-3-yl]amino]pyrazine-2-carbonitrile, hydrochloride], the IC50 is reported as 0.28 nM.
